In patent publication US20050203029A1, “Agents for treating <I>flaviviridae</I>infections” (priority 2002, published 2005):
Peptide text beside a SMILES is read from it. * marks the point of attachment. Cbz = O=C(OCc1ccccc1)*

Columns and labels:
BVDV = assay: Electron microscopy (TEM) of BVDV-infected MDBK cells and virus supernatants; format: cell-based, bovine viral diarrhea virus
West Nile virus = West Nile virus infection of BHK-21 cells (end point titration, RNase protection, immunofluorescence); format: cell-based, West Nile flavivirus; details: 10 nM PI after infection, 12 hours
BVDV CP7 = BVDV CP7 infection of MDBK cells (end point titration, RNase protection, immunofluorescence); format: cell-based, bovine viral diarrhea virus; details: 10 nM PI after infection, 30 hours
BVDV (CP7, NADL) = assay: Western blot of pelleted BVDV virions with anti-BVDV core antibodies; format: cell-based, bovine viral diarrhea virus; details: for production of BVDV virions (pelleted virions): 24 or 48 hours of treatment; for core signal, mature and immature form of the BVDV core protein / quantity of BVDV virus as measured by the core signal: 48 hours of treatment; for quantity of BVDV virus as measured by the core signal: 150 μM

| Compound | number of virus particles detected in cellular vesicles vs mock (BVDV; 10 μm MG132, 30 hours) | ratio of completely assembled to incompletely assembled virions (BVDV; 10 μm MG132, 30 hours) | morphology of secreted viruses vs wild-type viruses (BVDV; supernatants of PI-treated vs mock-treated cells) | reduction in the number of progeny viruses released (West Nile virus) | reduction in the number of progeny viruses released (BVDV CP7) | production of BVDV virions (pelleted virions) (BVDV (CP7, NADL)) | core signal, mature and immature form of the BVDV core protein (BVDV (CP7, NADL)) | quantity of BVDV virus as measured by the core signal (BVDV (CP7, NADL)) [%] | reduction in the rate of RNA replication (factor) (West Nile virus) | reduction in the rate of RNA replication (factor) (BVDV CP7) |
| --- | --- | --- | --- | --- | --- | --- | --- | --- | --- | --- |
| CC(C)C[C@@H](C=O)NC(=O)[C@H](CC(C)C)NC(=O)[C@H](CC(C)C)NC(=O)OCc1ccccc1 [MG132, N-carbobenzoxy-L-leucinyl-L-leucinyl-L-leucinal] (Cbz-Leu-Leu-Leu-aldehyde) | significantly smaller number of virus particles | shifted significantly in favor of incompletely assembled virus particles | changed markedly | several log steps | several log steps | block the production of BVDV virions | dose-dependent decrease | 10 |  |  |
| CC(=O)N[C@@H](CSC(=O)[C@]1([C@@H](O)C(C)C)NC(=O)[C@H](C)[C@@H]1O)C(=O)O [lactacystin] |  |  |  | slight | slight | block the production of BVDV virions | dose-dependent decrease | 10 | slight | slight |
